In patent US9403756B2, “N-phenyl anthranilic acid derivatives and uses thereof” (Ramot at Tel-Aviv University Ltd., priority 2007, dated 2016):

What was measured:
Kv7.2 = molecular target: T1, Kv7.2 (Homo sapiens, UniProt O43526); assay: Kv channel selectivity, Xenopus oocytes: Kv7.2; format: cell-based; settings: −40 mV
T1 construct: expressed in transfected cells; host or cells: Xenopus oocytes
Method: (§1) Voltage-clamp measurements in Xenopus oocytes were performed as previously described.
(§2) The selectivity of NH29 on other relevant Kv channels expressed in Xenopus oocytes was also studied, and the results are summarized in Table 3 below. The specificity of NH29 at 25 μM and 50 μM towards various Kv channels was tested in Xenopus oocytes, except for Kv1.2 which was checked in transfected CHO cells. The current amplitude of the various Kv channels was tested at the indicated voltages and the effect of the drugs was expressed as fold of the control amplitude measured under the same conditions in the absence of the drug. The data in Table 3 are expressed as mean±SEM of 5-7 separate experiments.

TRPV1 channel = molecular target: T2, TRPV1 channel (Homo sapiens, UniProt Q8NER1); assay: TRPV1 currents in transfected CHO cells activated with capsaicin; format: cell-based; settings: 0.5 μM capsaicin
T2 construct: expressed in transfected cells; host or cells: CHO cells
Method: Chinese hamster ovary (CHO) cells were grown in Dulbecco's modified Eagle's medium (DMEM) supplemented with 2 mM glutamine, 10% fetal calf serum and antibiotics. Briefly, 40,000 cells seeded on poly-D-lysine-coated glass coverslips (13 mm diameter) in a 24-multiwell plate were transfected with pIRES-CD8 (0.5 μg) as a marker for transfection, and with Kv7.2 (0.5 μg) and Kv7.3 (0.5 μg) or TRPV1 […] or TRPV6 […].
For electrophysiology, transfected cells were visualized approximately 40 hours following transfection, using anti-CD8 antibody-coated beads. Transfection was performed using Fugene 6 (Roche, Indianapolis Ind., USA) according to the manufacturer's protocol.
Voltage-clamp recordings in CHO cells were performed, using the whole-cell configuration of the patch-clamp technique. Signals were amplified using an Axopatch 200B patch-clamp amplifier (Molecular Devices, Sunnyvale, Calif.), sampled at 2 kHz and filtered at 800 Hz via a 4-pole Bessel low pass filter. Data were acquired using pClamp 9.2 software (Molecular Devices) and an IBM compatible Pentium IV computer in conjunction with a DigiData 1322A interface (Molecular Devices). The patch pipettes were pulled from borosilicate glass (Warner Instrument Corp, USA) with a resistance of 2-5 MΩ. […] Series resistances (3-13 MΩ) were compensated (75-90%) and periodically monitored. […]

wild type KCNQ2 = molecular target: T3, wild type KCNQ2 (Homo sapiens, UniProt O43526); assay: Wild type KCNQ2 (Kv7.2) currents, patch-clamp; format: cell-based; settings: NH29
T3 construct: expressed in transfected cells; host or cells: CHO cells (printed for the mutants and in the general method)
Source text: FIGS. 10A-D present the potentiating effect of NH29, an exemplary channel opener compound according to embodiments of the present invention, on wild type KCNQ2 (FIGS. 10A and 10B) and R207W mutant (FIGS. 10C and 10D) channels, as expressed in activation curve measurements, showing that NH29 left-shifts the activation curve (ΔV50) by −15.5 mV and −5.5 mV in the case of the wild-type and the mutant, respectively, and showing that NH29 enhances the current of wild-type and the mutant by about 3.4-fold (at −40 mV) and 1.5-fold (at −20 mV), respectively.
Voltage-clamp recordings in CHO cells were performed, using the whole-cell configuration of the patch-clamp technique. Signals were amplified using an Axopatch 200B patch-clamp amplifier (Molecular Devices, Sunnyvale, Calif.), sampled at 2 kHz and filtered at 800 Hz via a 4-pole Bessel low pass filter. Data were acquired using pClamp 9.2 software (Molecular Devices) and an IBM compatible Pentium IV computer in conjunction with a DigiData 1322A interface (Molecular Devices). The patch pipettes were pulled from borosilicate glass (Warner Instrument Corp, USA) with a resistance of 2-5 MΩ. […] Series resistances (3-13 MΩ) were compensated (75-90%) and periodically monitored.

Kv11.1 or Herg = molecular target: T4, Kv11.1 or Herg (Homo sapiens, UniProt Q12809); assay: Kv channel selectivity, Xenopus oocytes: Kv11.1; format: cell-based; settings: 25 μM, −10 mV
T4 construct: expressed in transfected cells; host or cells: Xenopus oocytes
Method: as §1, §2

KCNQ2 mutant Y118S = molecular target: T5, KCNQ2 mutant Y118S (Homo sapiens, UniProt O43526, Y118S); assay: KCNQ2 mutant Y118S; format: cell-based; settings: 25 μM NH29
T5 construct: expressed in transfected cells
Method: FIG. 8 presents a bar-graph comparing the potentiating effect of 25 μM of Compound NH29 on various KCNQ subunits and mutants, wherein the opener effect is expressed as percent of the control current in the absence of the opener;

KCNQ2 mutant S121A = molecular target: T6, KCNQ2 mutant S121A (Homo sapiens, UniProt O43526, S121A); assay: KCNQ2 S1-S2 mutant S121A in CHO cells; format: cell-based; settings: 25 μM NH29
T6 construct: expressed in transfected cells; host or cells: CHO cells
Source text: FIGS. 12A-F present the potentiating effect of NH29, an exemplary channel opener compound according to embodiments of the present invention, on selected KCNQ2 mutants. Shown are bar diagrams comparing the potentiating effect of NH29 on native KCNQ2 and KCNQ2 mutants, wherein the mutated amino acids are located at the S1-S2 helix region (FIG. 12A) or S4 helix region (FIG. 12D) and wherein the opener effect is expressed as percent of the control current in the absence of the opener. For comparison, marked as a green line, is the observed current increase of native KCNQ2 by NH29. FIGS. 12B 12C, 12E and 12F present representative traces recorded from CHO cell transfected with the KCNQ2 mutant S122A, S121A, L206C and R201A respectively, before and after external application of 25 μM of NH29 and wherein the membrane potential was stepped from −90 mV holding potential to −40 mV for 1.5 seconds pulse duration.
Voltage-clamp recordings in CHO cells were performed, using the whole-cell configuration of the patch-clamp technique. Signals were amplified using an Axopatch 200B patch-clamp amplifier (Molecular Devices, Sunnyvale, Calif.), sampled at 2 kHz and filtered at 800 Hz via a 4-pole Bessel low pass filter. […] Series resistances (3-13 MΩ) were compensated (75-90%) and periodically monitored.

[1] = test system: maximal electroshock seizure model (MES) in ICR mice; assay: Maximal electroshock seizure test (MES); format: in vivo; settings: Mus musculus, ip; mice; intraperitoneal, 30 minutes before electroshock; 50 mA, 0.2 sec; read-out: ED50, protection against tonic extension caused by MES
Method: The anti-convulsant effect was measured by the maximal electroshock seizure model (MES) in ICR mice as previously described. The procedures followed for experimentation and maintenance of the animals were approved by the animal research ethics committee of Tel Aviv University and in accordance with the Guide for the Care and Use of Laboratory Animals (1996, National Academy of Sciences, Washington D.C.). Briefly, maximal electroshock was induced in adult mice by means of two transcorneal electrodes delivering an alternative current of 50 mA at 60 Hz for 0.2 sec using rodent shocker (Hugo Sachs Electronik, type 221). […] The compounds, dissolved in 0.9% saline, were administered intraperitoneally 30 minutes before the electroshock was performed. Animals failing to show tonic hind limb extension were scored as protected and were expressed in percentage.

T1 sequence (O43526 whole entry): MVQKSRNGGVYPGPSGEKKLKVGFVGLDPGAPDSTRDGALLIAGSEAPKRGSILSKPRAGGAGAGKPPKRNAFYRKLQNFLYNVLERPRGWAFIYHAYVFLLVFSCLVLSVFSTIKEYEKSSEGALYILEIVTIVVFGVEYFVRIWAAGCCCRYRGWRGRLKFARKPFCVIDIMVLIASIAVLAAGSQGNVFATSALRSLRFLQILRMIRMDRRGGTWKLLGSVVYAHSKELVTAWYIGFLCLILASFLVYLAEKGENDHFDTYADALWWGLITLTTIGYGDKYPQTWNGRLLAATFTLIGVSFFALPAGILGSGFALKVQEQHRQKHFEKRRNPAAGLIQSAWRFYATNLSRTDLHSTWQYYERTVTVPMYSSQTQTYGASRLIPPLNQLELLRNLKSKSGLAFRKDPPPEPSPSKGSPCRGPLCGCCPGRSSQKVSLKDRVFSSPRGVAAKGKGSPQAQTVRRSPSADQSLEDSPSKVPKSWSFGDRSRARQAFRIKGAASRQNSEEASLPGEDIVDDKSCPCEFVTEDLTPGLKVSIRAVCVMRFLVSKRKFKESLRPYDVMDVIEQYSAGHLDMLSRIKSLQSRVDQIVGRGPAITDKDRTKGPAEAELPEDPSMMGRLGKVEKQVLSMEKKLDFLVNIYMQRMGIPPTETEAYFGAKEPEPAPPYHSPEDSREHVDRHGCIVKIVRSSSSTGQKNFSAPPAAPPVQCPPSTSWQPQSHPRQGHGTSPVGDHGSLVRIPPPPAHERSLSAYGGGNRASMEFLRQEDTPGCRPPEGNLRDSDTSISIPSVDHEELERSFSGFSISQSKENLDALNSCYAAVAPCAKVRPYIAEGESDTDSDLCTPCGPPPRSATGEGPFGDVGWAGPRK
T2 sequence (Q8NER1 whole entry): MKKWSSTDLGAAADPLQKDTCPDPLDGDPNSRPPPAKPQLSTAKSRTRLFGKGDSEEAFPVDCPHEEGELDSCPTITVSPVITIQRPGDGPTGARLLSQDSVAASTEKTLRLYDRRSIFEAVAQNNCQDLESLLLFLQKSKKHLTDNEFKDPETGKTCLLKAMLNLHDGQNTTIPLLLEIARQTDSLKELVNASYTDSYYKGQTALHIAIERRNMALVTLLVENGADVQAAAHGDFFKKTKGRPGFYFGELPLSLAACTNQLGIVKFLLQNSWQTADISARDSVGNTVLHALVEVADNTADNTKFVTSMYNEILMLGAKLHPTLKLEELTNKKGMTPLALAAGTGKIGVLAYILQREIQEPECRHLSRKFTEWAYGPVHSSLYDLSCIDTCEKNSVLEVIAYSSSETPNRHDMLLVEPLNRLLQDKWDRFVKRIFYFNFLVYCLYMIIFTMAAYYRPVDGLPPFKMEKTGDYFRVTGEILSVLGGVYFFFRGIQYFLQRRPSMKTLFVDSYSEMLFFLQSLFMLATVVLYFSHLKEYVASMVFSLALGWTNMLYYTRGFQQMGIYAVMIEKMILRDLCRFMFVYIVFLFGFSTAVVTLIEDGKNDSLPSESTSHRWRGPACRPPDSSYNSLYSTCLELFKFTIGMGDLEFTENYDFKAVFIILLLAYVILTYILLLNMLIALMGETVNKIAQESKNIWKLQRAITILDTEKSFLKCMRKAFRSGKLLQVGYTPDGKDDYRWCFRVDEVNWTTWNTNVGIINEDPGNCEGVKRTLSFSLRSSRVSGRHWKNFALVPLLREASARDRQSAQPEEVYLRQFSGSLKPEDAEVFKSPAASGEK
T4 sequence (Q12809 whole entry): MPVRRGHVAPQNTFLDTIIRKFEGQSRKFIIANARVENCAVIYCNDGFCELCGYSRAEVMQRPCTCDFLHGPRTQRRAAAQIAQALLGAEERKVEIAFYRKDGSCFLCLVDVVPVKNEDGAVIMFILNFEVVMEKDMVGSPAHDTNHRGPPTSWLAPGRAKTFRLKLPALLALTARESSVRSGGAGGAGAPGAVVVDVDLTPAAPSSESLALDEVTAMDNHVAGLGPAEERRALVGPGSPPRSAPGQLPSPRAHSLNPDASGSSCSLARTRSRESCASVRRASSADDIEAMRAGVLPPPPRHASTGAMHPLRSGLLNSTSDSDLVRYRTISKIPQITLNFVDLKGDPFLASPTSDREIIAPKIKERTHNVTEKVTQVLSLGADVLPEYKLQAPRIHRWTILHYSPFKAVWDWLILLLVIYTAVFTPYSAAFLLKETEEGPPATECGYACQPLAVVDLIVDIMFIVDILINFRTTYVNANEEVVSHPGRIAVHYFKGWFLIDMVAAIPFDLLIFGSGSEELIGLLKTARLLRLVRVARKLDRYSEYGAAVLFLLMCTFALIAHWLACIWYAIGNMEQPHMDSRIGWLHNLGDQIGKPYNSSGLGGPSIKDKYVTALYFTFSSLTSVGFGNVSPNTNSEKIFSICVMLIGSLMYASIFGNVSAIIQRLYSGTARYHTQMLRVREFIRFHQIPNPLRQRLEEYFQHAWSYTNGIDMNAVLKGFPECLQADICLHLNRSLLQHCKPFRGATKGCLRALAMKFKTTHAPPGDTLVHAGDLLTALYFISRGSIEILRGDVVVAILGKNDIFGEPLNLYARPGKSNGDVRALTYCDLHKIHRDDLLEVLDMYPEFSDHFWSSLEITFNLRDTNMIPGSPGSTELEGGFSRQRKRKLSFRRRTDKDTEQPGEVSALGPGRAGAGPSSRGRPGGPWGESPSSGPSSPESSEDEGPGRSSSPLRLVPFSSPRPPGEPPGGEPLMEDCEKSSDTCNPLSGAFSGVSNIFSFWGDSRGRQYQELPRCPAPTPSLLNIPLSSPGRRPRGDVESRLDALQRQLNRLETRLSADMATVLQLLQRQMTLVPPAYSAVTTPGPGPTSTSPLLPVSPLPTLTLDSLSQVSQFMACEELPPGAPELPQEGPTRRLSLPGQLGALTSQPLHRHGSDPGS
T3 sequence (O43526 whole entry): as the sequence (O43526 whole entry) above
T6 sequence (O43526 whole entry S121A): as the sequence (O43526 whole entry) above, with S121A counted along it
T5 sequence (O43526 whole entry Y118S): as the sequence (O43526 whole entry) above, with Y118S counted along it

SMILES: O=C(Cc1cc([N+](=O)[O-])cc([N+](=O)[O-])c1Nc1c(Cl)cc([N+](=O)[O-])cc1Cl)NCCO [NH29]
- Fold current amplitude (Kv7.2; 25 μM): 3.5 ± 0.4 fold
- Fold current amplitude (Kv7.2; 50 μM): 6.8 ± 0.7 fold
- inhibition of TRPV1 channels (TRPV1 channel; NH29 at 5-50 M as printed): potently inhibited TRPV1 channels
- inhibition of TRPV1 current (TRPV1 channel; 50 μM, reversible): almost completely
- left-shift of the activation curve (ΔV50) (wild type KCNQ2): −15.5 mV
- Fold current amplitude (Kv11.1 or Herg): 1.1 ± 0.02 fold
- fold potentiation of current (KCNQ2 mutant Y118S): 2.1 fold
- fold activation of current (KCNQ2 mutant S121A): 2 fold

SMILES: O=C(Cc1cc([N+](=O)[O-])ccc1Nc1c(Cl)cccc1Cl)OCCO [NH25]
- ED50 [1]: 12 mg/kg
